The values below come from paper PMC6044785 (ACS Omega, 2017).

Read-outs that look alike come from different tables or passages of the source. Square brackets hold non-standard residues; d marks the D form. Peptide text beside a SMILES is read from it. Gly(But-3-enyl) = C=CCC[C@H](N)C(=O)O; Aib = CC(C)(N)C(=O)O

One experiment addresses T1, HDAC6 (Homo sapiens, UniProt Q9UBN7).
T1 sequence (Q9UBN7 1-1215): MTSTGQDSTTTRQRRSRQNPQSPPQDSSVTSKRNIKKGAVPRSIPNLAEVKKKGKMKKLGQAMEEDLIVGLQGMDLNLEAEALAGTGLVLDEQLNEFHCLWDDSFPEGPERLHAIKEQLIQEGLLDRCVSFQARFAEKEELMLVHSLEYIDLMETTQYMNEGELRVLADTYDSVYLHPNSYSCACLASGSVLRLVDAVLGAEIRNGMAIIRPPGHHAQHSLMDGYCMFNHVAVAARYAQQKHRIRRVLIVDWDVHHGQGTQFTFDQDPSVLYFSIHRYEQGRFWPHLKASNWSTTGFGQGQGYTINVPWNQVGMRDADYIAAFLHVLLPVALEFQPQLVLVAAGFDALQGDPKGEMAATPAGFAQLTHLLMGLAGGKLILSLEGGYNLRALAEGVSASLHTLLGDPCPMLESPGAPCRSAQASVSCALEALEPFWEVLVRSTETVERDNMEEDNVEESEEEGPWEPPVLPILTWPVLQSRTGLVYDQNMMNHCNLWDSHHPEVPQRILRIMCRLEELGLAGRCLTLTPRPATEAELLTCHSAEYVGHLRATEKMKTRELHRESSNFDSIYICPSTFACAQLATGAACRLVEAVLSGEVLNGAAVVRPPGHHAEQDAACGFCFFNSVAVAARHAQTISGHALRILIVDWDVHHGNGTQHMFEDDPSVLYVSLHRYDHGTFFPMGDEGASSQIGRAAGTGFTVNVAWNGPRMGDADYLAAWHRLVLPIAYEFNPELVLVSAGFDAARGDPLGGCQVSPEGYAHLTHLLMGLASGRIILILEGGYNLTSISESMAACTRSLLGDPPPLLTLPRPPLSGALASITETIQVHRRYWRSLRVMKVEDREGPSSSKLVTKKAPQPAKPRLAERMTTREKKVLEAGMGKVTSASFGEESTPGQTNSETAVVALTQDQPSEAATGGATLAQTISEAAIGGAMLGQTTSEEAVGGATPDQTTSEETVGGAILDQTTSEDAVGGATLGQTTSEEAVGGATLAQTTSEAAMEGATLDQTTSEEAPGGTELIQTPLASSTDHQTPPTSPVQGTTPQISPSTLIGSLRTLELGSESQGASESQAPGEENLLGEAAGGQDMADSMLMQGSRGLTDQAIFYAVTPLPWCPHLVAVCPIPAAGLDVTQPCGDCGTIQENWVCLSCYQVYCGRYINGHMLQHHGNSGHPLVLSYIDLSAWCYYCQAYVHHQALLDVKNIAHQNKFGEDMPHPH
The experiment in a line: HDAC6 enzymatic inhibition assay. Format: biochemical.

Another experiment deals with HEK293. The experiment in a line: Antiproliferative activity on HEK293 cells. The following applies: read-out: GI50 (μM) HEK293. Type of experiment: cell-based, human.
For another experiment, the system named is HeLa. The experiment in a line: Antiproliferative activity on HeLa cells. Type of experiment: cell-based, human. Conditions: 72 h, read-out: GI50 (μM) HeLa.
In another experiment the target is HDAC3/NCOR2 (Homo sapiens, UniProt O15379). Nature of the experiment: HDAC3/NCOR2 enzymatic inhibition assay. Format: biochemical.
The test system of experiment [1] is K562. The following applies: read-out: GI50 (μM) K562; Table 3; ref [22]; cited from earlier work.
The next experiment deals with HeLa nuclear extract. Nature of the experiment: HDAC inhibition assay with HeLa nuclear extract. Format: biochemical, human. The following applies: read-out: IC50 (μM) HeLa nuclear extract; Table 1; mean ± SD of three independent experiments; >100 = not active (inhibition < 50% at 100 μM).
Experiment [2] deals with Jurkat. Conditions: read-out: GI50 (μM) Jurkat; Table 3; ref [22]; cited from earlier work.
The next experiment deals with HDAC1 (Homo sapiens, UniProt Q13547). Nature of the experiment: HDAC1 enzymatic inhibition assay. Type of experiment: biochemical.
In experiment [3] the test system is P. falciparum. Conditions: read-out: GI50 (μM) P. falciparum; Table 3; ref [22]; cited from earlier work.
Another experiment has as its target HDAC4 (Homo sapiens, UniProt P56524). Nature of the experiment: HDAC4 enzymatic inhibition assay. Type of experiment: biochemical.
For a further experiment, the target named is T2, HDAC8 (Homo sapiens, UniProt Q9BY41).
T2 sequence (Q9BY41 1-377): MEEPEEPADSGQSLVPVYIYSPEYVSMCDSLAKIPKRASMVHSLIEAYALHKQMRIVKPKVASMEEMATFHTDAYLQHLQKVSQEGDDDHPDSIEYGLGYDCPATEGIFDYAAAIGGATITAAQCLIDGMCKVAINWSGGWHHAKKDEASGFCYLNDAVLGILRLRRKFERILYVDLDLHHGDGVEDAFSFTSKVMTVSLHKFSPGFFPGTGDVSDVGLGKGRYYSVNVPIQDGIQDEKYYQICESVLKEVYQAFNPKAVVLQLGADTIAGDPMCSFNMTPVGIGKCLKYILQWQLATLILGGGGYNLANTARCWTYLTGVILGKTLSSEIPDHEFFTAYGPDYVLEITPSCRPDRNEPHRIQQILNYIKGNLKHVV
The experiment in a line: HDAC8 enzymatic inhibition assay. Type of experiment: biochemical.

In the next experiment the test system is T. gondii RH strain. Conditions: read-out: IC50 T. gondii RH strain; ref [22]; cited from earlier work.
For experiment [4], the system named is P. falciparum. The experiment in a line: P. falciparum [3H]-hypoxanthine incorporation assay. Conditions: Plasmodium falciparum, 3D7, read-out: GI50 (μM) P. falciparum. Format: cell-based, Plasmodium falciparum 3D7 strain.
For experiment [5], the system named is Jurkat. Nature of the experiment: Antiproliferative activity on Jurkat cells. Type of experiment: cell-based. The following applies: Homo sapiens, read-out: GI50 (μM) Jurkat.
Experiment [6] has as its system K562. Nature of the experiment: Antiproliferative activity on K562 cells. Conditions: Homo sapiens, K562, read-out: GI50 (μM) K562. Type of experiment: cell-based.
A further experiment concerns normal B lymphocytes. Nature of the experiment: Antiproliferative activity on normal B lymphocytes. Format: cell-based. The following applies: Homo sapiens, Lymphocyte, 72 h, read-out: GI50 normal B lymphocytes.

Sequence of HDAC3/NCOR2 (O15379 whole entry): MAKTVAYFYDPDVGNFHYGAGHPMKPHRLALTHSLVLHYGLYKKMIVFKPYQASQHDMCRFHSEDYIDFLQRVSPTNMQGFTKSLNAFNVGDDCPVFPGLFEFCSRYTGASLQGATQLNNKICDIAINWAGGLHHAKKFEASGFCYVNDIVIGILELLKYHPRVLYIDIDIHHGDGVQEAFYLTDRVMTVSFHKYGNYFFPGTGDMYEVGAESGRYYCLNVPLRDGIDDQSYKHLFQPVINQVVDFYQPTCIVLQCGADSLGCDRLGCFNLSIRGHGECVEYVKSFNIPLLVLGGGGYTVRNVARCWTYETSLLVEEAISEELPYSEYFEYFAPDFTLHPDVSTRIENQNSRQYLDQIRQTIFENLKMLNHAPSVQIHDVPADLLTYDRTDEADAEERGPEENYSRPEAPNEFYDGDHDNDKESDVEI
Sequence of HDAC3/NCOR2 (Q9Y618 395-489 partner limits assumed): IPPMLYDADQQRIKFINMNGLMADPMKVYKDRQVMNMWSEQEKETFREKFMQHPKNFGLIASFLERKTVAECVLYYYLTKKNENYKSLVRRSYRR
Sequence of HDAC4 (P56524 whole entry): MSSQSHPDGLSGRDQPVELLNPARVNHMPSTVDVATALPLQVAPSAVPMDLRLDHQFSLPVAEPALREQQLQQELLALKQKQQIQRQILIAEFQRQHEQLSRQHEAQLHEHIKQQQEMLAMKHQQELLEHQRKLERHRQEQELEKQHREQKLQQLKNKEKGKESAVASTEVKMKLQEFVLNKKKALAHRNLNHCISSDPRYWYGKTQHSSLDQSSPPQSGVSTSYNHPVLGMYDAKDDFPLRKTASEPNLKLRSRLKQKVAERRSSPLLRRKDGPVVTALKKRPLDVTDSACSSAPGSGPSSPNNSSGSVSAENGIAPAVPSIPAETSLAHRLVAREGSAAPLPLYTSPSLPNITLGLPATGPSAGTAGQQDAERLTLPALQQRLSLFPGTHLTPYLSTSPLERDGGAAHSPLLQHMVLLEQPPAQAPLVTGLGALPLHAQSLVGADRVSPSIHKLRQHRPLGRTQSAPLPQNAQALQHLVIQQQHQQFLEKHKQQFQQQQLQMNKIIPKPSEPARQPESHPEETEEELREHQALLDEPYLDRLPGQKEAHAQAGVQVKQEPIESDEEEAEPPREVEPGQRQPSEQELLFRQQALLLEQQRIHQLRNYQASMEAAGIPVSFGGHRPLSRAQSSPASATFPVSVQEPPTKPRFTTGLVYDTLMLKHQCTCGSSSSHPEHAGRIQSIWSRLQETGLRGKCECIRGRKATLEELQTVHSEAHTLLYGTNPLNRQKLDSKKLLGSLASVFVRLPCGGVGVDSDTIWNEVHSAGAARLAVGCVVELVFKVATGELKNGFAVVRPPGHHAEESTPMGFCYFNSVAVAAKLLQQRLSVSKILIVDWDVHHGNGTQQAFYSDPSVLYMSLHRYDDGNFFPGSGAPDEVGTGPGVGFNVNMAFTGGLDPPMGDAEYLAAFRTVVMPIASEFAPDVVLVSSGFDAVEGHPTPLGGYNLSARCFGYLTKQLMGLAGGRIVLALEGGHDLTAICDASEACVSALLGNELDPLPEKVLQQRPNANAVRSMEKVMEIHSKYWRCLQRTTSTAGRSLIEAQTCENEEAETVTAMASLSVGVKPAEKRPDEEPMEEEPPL
Sequence of HDAC1 (Q13547 whole entry): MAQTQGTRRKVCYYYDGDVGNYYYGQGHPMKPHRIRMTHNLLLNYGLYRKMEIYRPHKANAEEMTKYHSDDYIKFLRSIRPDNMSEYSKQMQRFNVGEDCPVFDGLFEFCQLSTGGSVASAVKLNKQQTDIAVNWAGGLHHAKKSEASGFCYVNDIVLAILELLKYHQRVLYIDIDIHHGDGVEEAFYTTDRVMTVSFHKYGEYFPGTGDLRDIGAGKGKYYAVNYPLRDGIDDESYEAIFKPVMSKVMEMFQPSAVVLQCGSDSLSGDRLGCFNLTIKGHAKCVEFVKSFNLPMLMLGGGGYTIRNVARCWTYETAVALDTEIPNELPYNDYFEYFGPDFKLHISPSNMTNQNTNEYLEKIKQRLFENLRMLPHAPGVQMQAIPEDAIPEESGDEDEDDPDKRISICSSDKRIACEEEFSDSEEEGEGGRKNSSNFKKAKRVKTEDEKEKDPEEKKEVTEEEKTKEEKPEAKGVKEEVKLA

`C[C@@H](O)C(=O)CCCCC[C@@H]1NC(=O)[C@H]2CCCN2C(=O)[C@H](Cc2ccccc2)NC(=O)C(C)(C)NC1=O` [Compound 3]: the IC50 on HDAC6 was > 300 µM; against HDAC3/NCOR2, 0.33 ± 0.01 µM; with HeLa nuclear extract it was 0.0081 ± 0.0019 µM; at HDAC1, 0.96 ± 0.6 µM; against HDAC4, > 100 µM; against HDAC8, 7.02 ± 1.53 µM. Besides, in the experiment with T. gondii RH strain, the IC50 was 0.0286 µM. In addition, the GI50 is 0.04 ± 0.02 µM in the experiment on HEK293 (Homo sapiens, HEK293, 72 h); 0.17 ± 0.01 µM in the experiment with HeLa (Homo sapiens); 0.018 ± 0.002 µM in the experiment with K562 [1]; 0.048 ± 0.001 µM with Jurkat [2]; 0.0174 ± 0.002 µM in the experiment with P. falciparum [3].

For the compound `C[C@@H](O)C(=O)CCCCCC(=O)Nc1ccccc1` [Compound 11a, (R)-8-Hydroxy-7-oxo-N-phenylnonanamide], the half-maximal inhibitory concentration (IC50) against HDAC6 was 101 ± 2.9 µM; with HeLa nuclear extract, > 100 µM.

For the compound `C[C@@H](O)C(=O)CCCCCCC(=O)Nc1ccccc1` [Compound 11b, (R)-9-Hydroxy-8-oxo-N-phenyldecanamide], the IC50 at HDAC6 is > 300 µM; on HDAC3/NCOR2, 50.2 ± 4.7 µM; in the experiment on HeLa nuclear extract, 8.9 ± 0.5 µM; against HDAC1, 7.9 ± 0.8 µM; on HDAC4, > 100 µM; against HDAC8 it was > 100 µM. In addition, the 50% growth inhibitory concentration (GI50) in the experiment on HEK293 (Homo sapiens, HEK293, 72 h) was 35.6 ± 1.6 µM; in the experiment with HeLa (Homo sapiens), > 50 µM; with P. falciparum [4], 37.9 ± 3.8 µM; in the experiment on Jurkat [5], 92 ± 1 µM; in the experiment on K562 [6], 62.3 ± 5.8 µM.

Take `C[C@@H](O)C(=O)CCCCCCCC(=O)Nc1ccccc1` [Compound 11c, (R)-10-Hydroxy-9-oxo-N-phenylundecanamide]: the IC50 against HDAC6 was > 300 µM; with HeLa nuclear extract, 27.3 ± 5.9 µM.

For the compound `C[C@H](O)C(=O)CCCCCCC(=O)Nc1cccc(-c2cn(-c3ccccc3)nn2)c1` [Compound 11e, (S)-9-Hydroxy-8-oxo-N-(3-(1-phenyl-1H-1,2,3-triazol-4-yl)phenyl)decanamide], the IC50 is > 300 µM on HDAC6; 1.97 ± 0.03 µM on HDAC3/NCOR2; 0.88 ± 0.05 µM in the experiment on HeLa nuclear extract; 5.04 ± 0.07 µM against HDAC1; > 100 µM against HDAC4; > 100 µM at HDAC8. For the same compound, the GI50 in the experiment on HEK293 (Homo sapiens, HEK293, 72 h) is 15.9 ± 1.13 µM; with HeLa (Homo sapiens), 115 ± 25.3 µM; in the experiment with P. falciparum [4] it was 4.85 ± 1.3 µM; in the experiment on Jurkat [5] it was 2.84 ± 0.7 µM; in the experiment on K562 [6], 7.12 ± 0.9 µM; with normal B lymphocytes, > 50 µM.

Regarding `C[C@H](O)C(=O)CCCCCCC(=O)Nc1ccccc1` [Compound 11f, (S)-9-Hydroxy-8-oxo-N-phenyldecanamide], the IC50 was > 300 µM at HDAC6 and 77.1 ± 6.4 µM with HeLa nuclear extract.

On to `CCC(=O)CCCCCCC(=O)Nc1ccccc1` [Compound 11g, 8-Oxo-N-phenyldecanamide], for which the values for the IC50 against HDAC6 and with HeLa nuclear extract were > 300 µM and > 100 µM, respectively.

As for `CC(=O)O[C@H](C)C(=O)CCCCCCC(=O)Nc1ccccc1` [Compound 12b, (R)-3,10-Dioxo-10-(phenylamino)decan-2-yl Acetate], the results for the IC50 against HDAC6 and in the experiment on HeLa nuclear extract were > 300 µM and 63.8 ± 5.3 µM, respectively. The GI50 in the experiment with HEK293 (Homo sapiens, HEK293, 72 h) is 36.3 ± 1.7 µM; in the experiment with HeLa (Homo sapiens), > 50 µM; in the experiment on P. falciparum [4] it was 40.1 ± 4.3 µM; in the experiment with Jurkat [5] it was ≥ 100 µM; with K562 [6], ≥ 100 µM.

On to `CC(=O)O[C@H](C)C(=O)CCCCC[C@@H]1NC(=O)[C@H]2CCCN2C(=O)[C@H](Cc2ccccc2)NC(=O)C(C)(C)NC1=O` [Compound 13], for which the half-inhibitory concentration (IC50) against HDAC6 was > 300 µM; at HDAC3/NCOR2, 0.35 ± 0.003 µM; in the experiment with HeLa nuclear extract, 0.11 ± 0.0008 µM; on HDAC1, 0.39 ± 0.02 µM; against HDAC4, > 100 µM; against HDAC8, 1.87 ± 0.42 µM. In addition, the GI50 was 0.006 ± 0.001 µM in the experiment with HEK293 (Table 3, 72 h, XTT); 0.119 ± 0.008 µM in the experiment on HeLa (Table 3, XTT); 0.061 ± 0.002 µM in the experiment on K562 [1]; 0.127 ± 0.011 µM in the experiment on Jurkat [2]; 0.0221 ± 0.001 µM in the experiment with P. falciparum [3].

`C=CCC[C@@H]1NC(=O)[C@H]2CCCN2C(=O)[C@H](Cc2ccccc2)NC(=O)C(C)(C)NC1=O` [Compound 14] (cyclo([Aib]F[dP][Gly(But-3-enyl)])): the IC50 on HDAC6 was > 300 µM.

A word on the IC50: it is the point on the concentration scale where inhibition reaches its midpoint. Broadly, the GI50 is the concentration giving 50% growth inhibition.
